Reference: ChEMBL document CHEMBL1201862, “PubChem BioAssay data set” (2004)
Several values for one entry are separate records, joined by “and”; a condition that tells them apart may be missing. Equal entries are not always repeated.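 Following 48 hours of exposure in 96-well plates, responses at five concentrations were used to interpolate endpoints linearly. Abbreviation: GI50, concentration required for 50% inhibition of growth.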 Activity calls are given as the source filed them. No stated cut-off is given here; in the data, active = GI50 up to about 1.1 µM and inactive = higher. Where a SMILES comes first, the peptide text is derived from it. The star is where a group is joined. Boc = CC(C)(C)OC(=O)*; OBn = c1ccc(CO*)cc1

Experiments:
Test in all cases: NCI-60 cell line screen, 48 h
A498 = test system: A498
ACHN = test system: ACHN
CCRF-CEM = test system: CCRF-CEM
COLO 205 = test system: COLO 205
EKVX = test system: EKVX
HOP-92 = test system: HOP-92
Hs-578T = test system: Hs-578T
IGROV-1 = test system: IGROV-1
K562 = test system: K562
MDA-MB-435 = test system: MDA-MB-435
MOLT-4 = test system: MOLT-4
RPMI-8226 = test system: RPMI-8226
SK-MEL-2 = test system: SK-MEL-2
SN12C = test system: SN12C
SW-620 = test system: SW-620
HCC 2998 = test system: HCC 2998
MCF7 = test system: MCF7
NCI-H226 = test system: NCI-H226
SF-295 = test system: SF-295
SK-OV-3 = test system: SK-OV-3

Measured: GI50

CCCSc1ccc2[nH]c(/N=C/c3ccccc3)cc2c1
inactive: A498 28.8 µM | ACHN 31.2 µM | CCRF-CEM 13.5 µM | COLO 205 19.3 µM | EKVX 26.9 µM | HOP-92 25.5 µM | Hs-578T 27.9 µM | IGROV-1 31.8 µM | K562 8.34 µM | MDA-MB-435 5.75 µM | MOLT-4 13.7 µM | RPMI-8226 14.8 µM | SK-MEL-2 16.6 µM | SN12C 27.3 µM | SW-620 23.1 µM

Cc1ccc2nc3n(c2c1)C(c1c(F)cccc1F)SC3 (centres undefined)
inactive: A498 > 100 µM | ACHN > 100 µM | CCRF-CEM > 100 µM | COLO 205 > 100 µM | HCC 2998 > 100 µM | HOP-92 49.3 µM | Hs-578T > 100 µM | IGROV-1 > 100 µM | K562 > 100 µM | MCF7 47.1 µM | MOLT-4 63.8 µM | NCI-H226 > 100 µM | RPMI-8226 > 100 µM | SF-295 > 100 µM | SK-MEL-2 > 100 µM | SK-OV-3 > 100 µM | SN12C > 100 µM | SW-620 > 100 µM

COc1ccc(N2C(=O)C(=O)N(c3ccc(/N=N\c4ccccc4)cc3)C2=S)cc1
inactive: A498 23.8 µM | ACHN 19 µM | CCRF-CEM 35.1 µM | COLO 205 17.1 µM | EKVX 17.9 µM | HCC 2998 16.4 µM | HOP-92 16.8 µM | Hs-578T 27.4 µM | IGROV-1 16.6 µM | K562 37.5 µM | MDA-MB-435 22.8 µM | MOLT-4 32.9 µM | NCI-H226 21.7 µM | RPMI-8226 40.7 µM | SF-295 18.7 µM | SK-MEL-2 17.9 µM | SK-OV-3 20.2 µM | SN12C 18 µM | SW-620 18.7 µM

COc1ccc2[nH]cc(CCNC(=O)[C@H](Cc3ccc(O)cc3)NC(=O)[C@@H](NCC(F)(F)F)C(C)C)c2c1
inactive: ACHN > 100 µM | CCRF-CEM 39.7 µM | COLO 205 41.9 µM | EKVX 99.8 µM | HOP-92 75.5 µM | Hs-578T 31 µM | IGROV-1 97.7 µM | K562 71.6 µM | MCF7 35.5 µM | MDA-MB-435 25.2 µM | MOLT-4 68.5 µM | NCI-H226 41.8 µM | RPMI-8226 34.4 µM | SF-295 39.7 µM | SK-MEL-2 58.2 µM | SK-OV-3 > 100 µM | SN12C > 100 µM | SW-620 > 100 µM

Cc1ccccc1NC(=O)Cc1csc(N/N=C2\NC(=O)/C(=C/c3cccc([N+](=O)[O-])c3)S2)n1
inactive: ACHN 15.6 µM | COLO 205 34.2 µM | EKVX 13.5 µM | HCC 2998 14.3 µM | HOP-92 15.8 µM | IGROV-1 14.1 µM | MCF7 41.8 µM | MDA-MB-435 19.8 µM | MOLT-4 23.9 µM | NCI-H226 17.8 µM | SF-295 18.1 µM | SK-MEL-2 26.4 µM | SK-OV-3 53.1 µM | SN12C 36.6 µM | SW-620 40.6 µM

Cc1ccc(S(=O)(=O)NC(=O)Nc2ccc(S(N)(=O)=O)cc2S(N)(=O)=O)cc1
inactive: CCRF-CEM > 100 µM | COLO 205 > 100 µM | EKVX > 100 µM | HOP-92 > 100 µM | Hs-578T > 100 µM | IGROV-1 > 100 µM | K562 > 100 µM | MCF7 > 100 µM | MDA-MB-435 > 100 µM | MOLT-4 > 100 µM | NCI-H226 > 100 µM | RPMI-8226 > 100 µM | SF-295 > 100 µM | SK-MEL-2 > 100 µM | SK-OV-3 > 100 µM | SN12C > 100 µM | SW-620 > 100 µM

COc1ccc(S(=O)(=O)Nc2ccc(-c3csc(N4C(=O)/C(=C/C=C\c5ccccc5)N=C4c4ccccc4)n3)cc2)cc1Cl
inactive: A498 22.5 µM | ACHN 31.1 µM | CCRF-CEM 20.1 µM | COLO 205 39.4 µM | HOP-92 16.6 µM | Hs-578T 29.9 µM | IGROV-1 19.9 µM | K562 35.2 µM | MCF7 32.4 µM | MDA-MB-435 22.8 µM | MOLT-4 22.8 µM | NCI-H226 34 µM | SF-295 38.5 µM | SK-MEL-2 22.6 µM | SK-OV-3 65.3 µM | SN12C 33.2 µM | SW-620 43 µM

CC1OC(OC2C(OC(=O)[C@]34CCC(C)(C)C[C@H]3C3=CC[C@@H]5[C@@]6(C)CC[C@H](OC7OC(C(=O)O)C(O)C(O)C7O)C(C)(C)[C@@H]6CC[C@@]5(C)[C@]3(C)C[C@H]4O)OCC(O)C2O)C(O)C(O)C1OC1OCC(O)C(O)C1O (some centres undefined)
inactive: A498 2.54 µM and 1.72 µM | ACHN 9.35 µM | CCRF-CEM 17.5 µM and 19.9 µM | COLO 205 3.64 µM and 2.32 µM | HOP-92 13.8 µM and 11.2 µM | Hs-578T 19.8 µM and 21.3 µM | IGROV-1 15.2 µM and 13 µM | K562 16.4 µM and 14.6 µM | MOLT-4 16 µM and 27 µM | NCI-H226 4.57 µM and 7.19 µM | RPMI-8226 12.1 µM and 16.8 µM | SF-295 10.1 µM and 15.5 µM | SK-OV-3 16.8 µM and 18.9 µM | SN12C 2.38 µM and 4.59 µM | SW-620 13 µM and 16.3 µM

COc1cc(O)c2c(=O)cc(-c3ccc(O)cc3O)oc2c1CC=C(C)C [ARTOCARPETIN A]
inactive: A498 22.1 µM | ACHN 16.3 µM | CCRF-CEM 15.4 µM | COLO 205 9.25 µM | EKVX 26.1 µM | HOP-92 19.6 µM | Hs-578T 28.4 µM | IGROV-1 20.3 µM | K562 17 µM | MCF7 20.3 µM | MDA-MB-435 18.7 µM | MOLT-4 8.93 µM | NCI-H226 12.2 µM | RPMI-8226 20.3 µM | SF-295 12.9 µM | SK-MEL-2 17.2 µM | SN12C 16.4 µM | SW-620 24.3 µM

O=c1[nH]n(Cc2ccccc2Cl)c2ccc([N+](=O)[O-])cc12
inactive: A498 22.3 µM | ACHN 33.3 µM | CCRF-CEM 45.2 µM | COLO 205 > 100 µM | EKVX 58.7 µM | HCC 2998 50.1 µM | HOP-92 18.5 µM | Hs-578T 48.9 µM | IGROV-1 61.9 µM | K562 29 µM | MDA-MB-435 3.98 µM | MOLT-4 35.8 µM | NCI-H226 86.9 µM | RPMI-8226 45.1 µM | SK-MEL-2 34.7 µM | SN12C 54 µM | SW-620 53.7 µM

CC(C)CC(NC(=O)C(Cc1ccccc1)NC(=O)C(Cc1ccccc1)NC(=O)OC(C)(C)C)C(=O)OCc1ccccc1 (stereo not drawn) (Boc-Phe-Phe-Leu-OBn; configuration not given here)
inactive: A498 > 100 µM | CCRF-CEM > 100 µM | COLO 205 > 100 µM | EKVX > 100 µM | HOP-92 > 100 µM | Hs-578T > 100 µM | IGROV-1 > 100 µM | K562 > 100 µM | MCF7 > 100 µM | MDA-MB-435 > 100 µM | MOLT-4 > 100 µM | NCI-H226 > 100 µM | RPMI-8226 > 100 µM | SF-295 > 100 µM | SK-MEL-2 > 100 µM | SK-OV-3 > 100 µM | SN12C > 100 µM | SW-620 > 100 µM

COC(=O)C(Cc1ccccc1)NP(=O)(O)OCC1OC(n2cc(I)c(=O)[nH]c2=O)CC1O (centres undefined)
inactive: A498 > 100 µM | ACHN > 100 µM | CCRF-CEM > 100 µM | COLO 205 > 100 µM | EKVX > 100 µM | HOP-92 > 100 µM | Hs-578T > 100 µM | IGROV-1 > 100 µM | K562 > 100 µM | MCF7 > 100 µM | MDA-MB-435 > 100 µM | MOLT-4 > 100 µM | NCI-H226 > 100 µM | RPMI-8226 > 100 µM | SF-295 > 100 µM | SK-OV-3 > 100 µM | SN12C > 100 µM | SW-620 > 100 µM

COC(CN1C=C(Sc2ccccc2)CC1)OC
inactive: A498 48.2 µM | ACHN 34.6 µM | CCRF-CEM 19.5 µM | COLO 205 22.6 µM | EKVX 43.3 µM | HCC 2998 33.9 µM | HOP-92 26.9 µM | IGROV-1 53.2 µM | K562 20.7 µM | MOLT-4 27.2 µM | NCI-H226 33.3 µM | RPMI-8226 21.7 µM | SF-295 19.5 µM | SK-MEL-2 19.4 µM | SK-OV-3 37 µM | SN12C 33.9 µM | SW-620 21.9 µM

NC1=Nc2ccccc2Sc2cccc(F)c21
inactive: A498 34.4 µM | ACHN > 100 µM | CCRF-CEM 25.2 µM | COLO 205 61.7 µM | EKVX 50.9 µM | HCC 2998 > 100 µM | HOP-92 > 100 µM | IGROV-1 > 100 µM | K562 37.2 µM | MCF7 65 µM | MDA-MB-435 74 µM | MOLT-4 37.8 µM | NCI-H226 66.5 µM | RPMI-8226 36 µM | SF-295 40.4 µM | SK-MEL-2 > 100 µM | SK-OV-3 > 100 µM | SN12C > 100 µM | SW-620 > 100 µM

COc1ccc2c(c1)O[C@@H]1C(O)Oc3cc(OC)c(OC)cc3[C@]1(O)C2=O (some centres undefined)
inactive: A498 82.6 µM | ACHN > 100 µM | CCRF-CEM 38.9 µM | COLO 205 95.1 µM | EKVX 45.9 µM | Hs-578T 20.2 µM | IGROV-1 > 100 µM | K562 42.9 µM | MCF7 55.1 µM | MDA-MB-435 50.8 µM | MOLT-4 36.6 µM | NCI-H226 10.4 µM | RPMI-8226 44.8 µM | SF-295 24 µM | SK-MEL-2 > 100 µM | SK-OV-3 > 100 µM | SN12C > 100 µM | SW-620 88.7 µM
